{"source": "paper PMC9028786", "about": "“The Ribosome Is the Ultimate Receptor for Trypsin Modulating Oostatic Factor (TMOF)” (Biomolecules, 2022)", "key": {"[1]": {"test_system": "bacterial 70 S ribosome", "assay": "Inhibition of luciferase translation in E. coli S30 extract", "format": "biochemical, Escherichia coli", "settings": "2 h at 37 °C", "description": "To test the effect of AeaTMOF and Oncocin112 (1–13) on the translation of Luciferase by the bacterial 70 S ribosome, an E. coli S30 lysate extract system for circular DNA (Promega) containing a plasmid pBestluc DNA vector (4486 bp) (1 mg/mL) 0.3 μL, amino acid mixture without methionine (1 mM) 1.25 μL, amino acid mixture without Leucine (1 mM) 1.25 μL, S30 premix (including ribosomes) without amino acids 5 μL, S30 extract circular 3.5 μL, RNasin (8 U, 112 ng) 0.2 μL, different concentrations of AeaTMOF or Oncocin112 (1–13) (0.001 μM to 1000 μM), and nuclease-free water to a volume of 12.5 μL were incubated for 2 h at 37 °C. […] After incubation, 87.5 μL of GLO lysis buffer (Promega) containing beetle luciferin was added, mixed, and aliquots (5 μL) were removed, and their luminescence read in a GLOMAX multidetector system. […] The decrease in luminescence (% ± SEM) in the presence of increasing log AeaTMOF or Oncocin112 (1–13) concentrations was then plotted using GrapPad Prism 3."}, "[2]": {"test_system": "S. frugiperda 80S ribosomes", "assay": "Inhibition of larval Ae. aegypti late trypsin translation in TnT T7 insect cell extract", "format": "biochemical, Spodoptera frugiperda", "settings": "TnT T7 insect cell extract from S. frugiperda Sf21, pFA25A ICE T7 flexi-late larval trypsin, [3H]leucine, 30 °C, 4 h, AeaTMOF 0.01–750 μM; mean of three determinations; linear regression; read-out: IC50, inhibition of Ae. aegypti late larval [3H]trypsin biosynthesis"}, "[3]": {"test_system": "E. coli CGSC strain7636 cells expressing SbmA^+", "assay": "Growth/viability of E. coli CGSC strain7636 expressing SbmA", "format": "cell-based, Escherichia coli", "settings": "3 and 10 mM peptide, 37 °C, 18 h, p < 0.05 vs control", "description": "(§1) We aimed to find out if AeaTMOF can also stop bacterial growth as, was shown for the proline-rich Oncocin112 that binds to the bacterial ribosome, stopping protein translation, bacterial growth, and causing bacterial death. E. coli CGSC strain7636 (2.7 × 10^4 cells) SbmA^+, expressing the proline-rich peptides importer SbmA, were incubated in 96-well plate containing 100 μL/well of LB medium, 0.4 mM of IPTG, 0.1 mM of ampicillin, and different concentrations of AeaTMOF and Oncocin112 (1–13) (3 mM and 10 mM) in different wells. The 96-well plate was incubated at 37 °C for 18 h and bacterial growth was followed at 630 nm using Biotech ElX808 absorbance microplate reader. Control wells contained bacterial cells growing without AeaTMOF or oncocin112 (1–13). […] After the incubations in the presence of Oncocin112 (1–13) or AeaTMOF of 10 mM and 3 mM, aliquots (0.5 μL) were removed from each well and spread on LB agar plates containing 0.1 mM of ampicillin, and the plates were incubated overnight at 37 °C and viable colonies were counted. Incubations were done in triplicates and the experiments were repeated twice. Results are expressed as means of three determinations ± SEM."}, "[4]": {"test_system": "E. coli mutant cells CGSC strain 8547 SbmA^- expressing only ABC-tmfA importer", "assay": "Growth/viability of E. coli mutant CGSC strain 8547 SbmA^- expressing ABC-tmfA importer", "format": "cell-based, Escherichia coli", "description": "E. coli CGSC strain […] lacking the SbmA importer expressing the ABCtmfA receptor/importer was prepared using plasmid pTAC-MAT-2 ABCtmfA importer/receptor as described earlier. [3,4,5 ^3H]Leucine 250 μCi, Spc Act 100–150 Ci/mmol was purchased from Perkin Elmer (Waltham, MA, USA). AeaTMOF-FITC (H-YDPAPPPPPPK(FITC)K-OH) was synthesized at the University of Colorado Anschutz School of Medicine protein core. AeaTMOF-FITC was purified by HPLC showing a single peak, and mass spectrometry analysis of the peak identified the 3 expected ions at 455.7, 607.3, and 910.3, showing an expected Mr 1019.56 as was described earlier. Synthetic AeaTMOF (H-YDPAPPPPPP-OH) and a short Oncocin112(1–13) (H-VDKPPYLPRPRPP-OH), a 13 amino acids oncocin112 peptide, 6 amino acids shorter than the original oncocin112 of 19 amino acids, were synthesized and purified by HPLC [16]. After HPLC purifications of AeaTMOF, oncocin112 (1–13), and AeaTMOF-FITC, the TFA ions were exchanged with phosphate ions.\nas §1"}, "[5]": {"test_system": "luciferase", "assay": "Effect on activity of pre-synthesized luciferase", "format": "biochemical, Beetle", "settings": "S30 extract with pBESTluc for 4 h without peptide, then AeaTMOF 1 to 100 μM added; results not shown", "description": "Incubations of E. coli S30 extract synthesizing Beetle luciferase in the presence of an increasing concentration of AeaTMOF (0.001 to 750 μM) stopped the biosynthesis of luciferase, diminishing its activity on Beetle luciferin as measured in luminescence units. The activity of the in vitro synthesized luciferase on Beetle luciferin at very low concentration of AeaTMOF (0.001 μM) was similar to luciferase activity without AeaTMOF, and this luminescence was used to calculate the decrease in luminescence (%) after incubation with increasing concentrations of AeaTMOF (Figure 1A). Higher concentrations of AeaTMOF (higher than 0.001 μM) caused a linear decrease in the synthesis of luciferase and a decline in luminescence (%) reaching IC50 (inhibition concentration of 50%) at 1 μM (Figure 1A). […] AeaTMOF is not an inhibitor of luciferase."}, "[6]": {"test_system": "late trypsin transcript in the gut epithelial cells", "settings": "circulating in hemolymph of females after the blood meal; cited from earlier work", "text": "(§2) Aedes aegypti Trypsin Modulating Oostatic Factor (AeaTMOF), a proline-rich peptide (YDPAPPPPPP), was originally isolated from the ovaries of female Ae. aegypti. AeaTMOF controls the biosynthesis of trypsin-like enzymes in the midgut epithelial cells of several species of mosquito including Aedes. aegypti, Culex quinquefasciatus, Culex. nigripalpus, and Anopheles albimanus. […] AeaTMOF was also ..."}, "[7]": {"test_system": "late trypsin transcript", "settings": "cited from earlier work", "text": "as §2"}, "[8]": {"test_system": "ABC-tmfA transporter (accession number MK895491)", "settings": "cited from earlier work", "text": "(§3) Several of these ABC transporters with 80–100% similarity with the AeaTMOF receptor are also found in several Aedes, Anopheles, and ..."}, "[9]": {"test_system": "Ae. aegypti larvae", "settings": "fed AeaTMOF expressed by engineered Chlorella desiccate, Saccharomyces cerevisiae, and Pichia pastoris; cited from earlier work", "text": "as §3"}, "[10]": {"test_system": "trypsin mRNA in the gut epithelial cells", "settings": "gut epithelial cells of Ae. aegypti and Neobellieria bullata; cited from earlier work", "text": "as §3"}, "[11]": {"test_system": "female mosquitoes", "settings": "injection after blood meal; cited from earlier work"}}, "note": "Where two headings read alike, the source gives them in different places. Ends that are not written are not given here.", "data": [{"sequence": "YDPAPPPPPP [AeaTMOF]", "values": [{"measurement": "Inhibition of luciferase biosynthesis at lowest concentration", "setting": "[1]; AeaTMOF at 0.001 μM, Oncocin112 (1–13) at 0.01 μM", "result": "do not inhibit the biosynthesis of luciferase"}, {"measurement": "Concentration of complete inhibition of luciferase biosynthesis", "setting": "[1]; E. coli S30 extract, luminescence", "result": "250 to 750", "unit": "µM"}, {"measurement": "IC50", "setting": "[1]; E. coli S30 lysate, pBestluc DNA, peptide 0.001 to 750 μM, luminescence read-out, mean of three determinations, read-out: IC50, inhibition of luciferase biosynthesis (luminescence)", "result": 1000, "unit": "nM"}, {"measurement": "IC50", "setting": "[2]", "result": 1800, "unit": "nM"}, {"measurement": "E. coli growth", "setting": "[3]; 630 nm", "result": "significantly inhibited the growth of the E. coli cells"}, {"measurement": "Viable colonies at end of incubation", "setting": "[3]; initial 2.7 × 10^4 cells, LB medium, plated on LB agar, triplicates", "result": "4–10 colonies"}, {"measurement": "E. coli growth", "setting": "[4]; SbmA^- cells expressing ABC-tmfA importer, 3 and 10 mM peptide, 37 °C, 18 h, 630 nm, p < 0.05 for inhibition", "result": "significantly (p < 0.05) inhibited"}, {"measurement": "E. coli cell growth (discussion)", "setting": "[4]; cells that only expressed ABCtmfA receptor/importer, up to 10 mM", "result": "inhibiting protein synthesis and cell growth"}, {"measurement": "Importer used", "setting": "[4]; inferred from growth of SbmA^+ and SbmA^- ABC-tmfA E. coli, 3 and 10 mM", "result": "can use the mosquito ABCtmfA importer, as well as the bacterial SbmA importer"}, {"measurement": "Effect on activity of luciferase synthesized in vitro", "setting": "[5]", "result": "did not affect the activity of luciferase"}, {"measurement": "Effect on translation of late trypsin transcript", "setting": "[6]", "result": "affects the translation of the late trypsin transcript in the gut epithelial cells"}, {"measurement": "Inhibition of translation of late trypsin transcript", "setting": "[7]; AeaTMOF expressed on coat protein of Tobacco Mosaic Virus, fed to insects", "result": "stopped the translation of the trypsin transcript in the gut epithelial cells"}, {"measurement": "Inhibition of translation of late trypsin transcript", "setting": "[7]", "result": "inhibit the translation of the late trypsin transcript"}, {"measurement": "Binding to gut receptor/importer", "setting": "[8]", "result": "binds a gut-specific receptor ABC-tmfA transporter"}, {"measurement": "Effect on larvae", "setting": "[9]", "result": "stopped larval trypsin biosynthesis and caused larval starvation and death"}, {"measurement": "Effect on translation of trypsin mRNA", "setting": "[10]", "result": "stop the translation of trypsin mRNA"}, {"measurement": "Effect on blood-fed female mosquitoes", "setting": "[11]", "result": "only inhibits trypsin biosynthesis, and as a result the blood meal is not digested and egg development is inhibited, making the female mosquitoes sterile but not killing them"}]}]}
